{
  "source": "patent US20220151953A1",
  "about": "“TREATMENT OF INFLAMMATORY SKIN CONDITIONS” (Echo Pharmaceuticals B.V., priority 2019, published 2022)",
  "key": {"TNFα": {"tested_on": "TNFα", "test": "Inhibition of secretion of TNFα by LPS-stimulated U937 cells (ELISA)", "format": "cell-based", "experimental": "(§1) The impact of cannabidiol, extract of Silybum marianum (fruit without pappus) and combinations of these components on the production of cytokines IL-1β and TNFα by a U937 cell line were investigated.\n(§2) U937 cells, were thawed and treated according to the manufacturer's instructions. The cultures were incubated for recovery at 37° C. with 5% CO2 until 70-80% confluency was reached (visual estimation). Then, approx. 0.3×10^6¢/mL (determined by counting) were seeded in 96 well plates containing 200 μL/well of complete growth medium. The cells were incubated at 37° C. with 5% CO2 until 60% confluency was reached (visual estimation, typically—after 48 hr).\n(§3) A proper blank control was subtracted from the measurements.\n(§4) The cells were incubated for 24 hr. at 37° C. with 5% CO2. After the incubation, the conditioned medium of the different treatment groups was collected under standardized conditions and centrifuged at 250×g for 5 min to remove particulates. Clear supernatants were frozen at −70° C. until cytokines analyses. The secretion levels of IL-1β and TNFα (a major inflammatory marker) were quantified by commercial ELISA."}, "prostaglandin E2 (PGE2)": {"tested_on": "prostaglandin E2 (PGE2)", "test": "Secretion of PGE2 by LPS-stimulated RAW 264.7 cells", "format": "cell-based", "settings": "Mus musculus, RAW264.7, LPS 12.5 ng/ml, each component present at 2.5 μg/ml", "experimental": "The impact of cannabidiol, extract of Silybum marianum (fruit without pappus) and extract of Centella asiatica (leaf) on the secretion of prostaglandin E2 (PGE2) was investigated.\nRAW 264.7 cells (approx. 2.5×10^5¢/ml, by counting) were seeded in 96 well plates containing 170 μl/well of complete growth medium. The cells were incubated at 37° C. with 5% CO2 for 24 hr. Then, the medium was aspirated and replaced by LPS-containing medium (12.5 ng/ml) without or with the test components. In addition, naïve cells, vehicle-treated cells, Stimulated Control, and Stimulated Vehicle Control served as negative controls. Dexamethasone served as a positive control for anti-inflammatory assay. A Blank control group was included in the assay.\nThe spent media from all test groups were collected under standardized conditions and centrifuged at 250 g for 5 min to remove particulates. Clear supernatants were frozen at −70° C. until analysis. The secretion levels of PGE2 (an important inflammatory marker) were determined."}, "human sebocytes": {"tested_on": "human sebocytes", "settings": "cultured human sebocytes and human skin organ culture; cited from earlier work"}, "IL-1β": {"tested_on": "IL-1β", "test": "Inhibition of secretion of IL-1β by LPS-stimulated U937 cells (ELISA)", "format": "cell-based", "experimental": "as §1, §2, §3, §4"}, "[1]": {"settings": "Homo sapiens, U-937, 1 μg/mL lipopolysaccharides, 24 hr, each component present at 10 μg/ml"}, "[2]": {"settings": "LPS-stimulated, summary of Table 2"}},
  "data": [
    {"smiles": "C=C(C)[C@@H]1CCC(C)=C[C@H]1c1c(O)cc(CCCCC)cc1O", "note": "[Sample 1, Cannabidiol]", "values": [
      {"measurement": "inhibition at 10 µg/mL", "setting": "TNFα; [1]", "value": 48, "unit": "%"},
      {"measurement": "effect on secretion of TNFα (in words)", "setting": "TNFα; [2]", "value": "attenuates secretion"},
      {"measurement": "inhibition at 2.5 µg/mL", "setting": "prostaglandin E2 (PGE2)", "value": 24, "unit": "%"},
      {"measurement": "effect on lipogenic actions of arachidonic acid, linoleic acid and testosterone", "setting": "human sebocytes", "value": "inhibited the lipogenic actions of various compounds"},
      {"measurement": "effect on sebocyte proliferation", "setting": "human sebocytes", "value": "suppressed sebocyte proliferation"},
      {"measurement": "inhibition at 10 µg/mL", "setting": "IL-1β; [1]", "value": 28.4, "unit": "%"},
      {"measurement": "effect on secretion of IL-1β (in words)", "setting": "IL-1β; [2]", "value": "attenuates secretion"}
    ]}
  ]
}
